In patent US7531320B2, “Modulation of β-catenin/TCF-activated transcription” (priority 2003, dated 2009):

Columns and labels:
PC3 = conditions: PC3, Prostate
Description: (§1) Cytotoxicity of COMPOUND 3 (an analog of COMPOUND 1, FIG. 1A) and other anticancer therapeutics were measured using cancer cells with various origins.

293 = conditions: 293, Renal
Description: as §1

MCF7 = conditions: MCF7, Breast
Description: as §1

RPM17951 = conditions: RPM17951, Melanoma
Description: as §1

A549 = conditions: A549, Lung
Description: as §1

HL60 = conditions: HL60, Leukemia
Description: as §1

[1] = Metabolism in human liver microsome (HPLC/MS); type: in vitro ADME; conditions: 5 minutes to 1 hour
Description: (§2) FIG. 10. Metabolism analysis of COMPOUND3 • A. The diode Array trace (upper panel) and the total ion current (lower panel) for COMPOUND3 and metabolites thereof in rat. • B. The diode Array trace (upper panel) and the total ion current (lower panel) for COMPOUND3 and metabolites thereof in human.
(§3) Metabolism of COMPOUND 3 was analyzed by incubating the compound with rat or human liver microsome for 5 minutes to 1 hour, fractioning extracts of treated microsome through HPLC and subjecting the fractions to MS analysis.

[2] = Bioavailability study in rat; type: in vivo; conditions: i.v and p.o, 10 mg/kg, 20% Tween 80
Description: (§4) Bioavailability of COMPOUND 3, COMPOUND 4 and COMPOUND 5 was studied in mouse and rat. All the compounds were administered (i.v and p.o, 10 mg/kg) using the same vehicle (i.e., 20% Tween 80).

[3] = Metabolism in rat liver microsome (HPLC/MS); type: in vitro ADME; conditions: 5 minutes to 1 hour
Description: as §2, §3

Min mouse = assay: Polyp number in Min mouse model; type: in vivo
Description: COMPOUND 4, COMPOUND 5, or vehicle was administrated in wild type and Min mice. COMPOUND 4 is also an analog of COMPOUND 1 (FIG. 1A). The numbers of polyp formed in small intestine and colon of these mice after various treatments were measured (Table 6).

[4] = Bioavailability study in mouse; type: in vivo; conditions: i.v and p.o, 10 mg/kg, 20% Tween 80
Description: as §4

Row | SMILES | Cytotoxicity (PC3) [µg/mL] | Cytotoxicity 293 [µg/mL] | Cytotoxicity (MCF7) [µg/mL] | Cytotoxicity (RPM17951) [µg/mL] | Cytotoxicity (A549) [µg/mL] | Cytotoxicity (HL60) [µg/mL] | Metabolites observed [1] | Bioavailability [2] | Metabolites observed [3] | Effect on number of polyp compared to vehicle control (Min mouse; Min mice, about 300 mpk) | Polyp Number (Mean + S.D.), Total (Min mouse; Min mouse) | Polyp Number (Mean + S.D.), Colon (Min mouse; Min mouse, 100 mpk) | Polyp Number (Mean + S.D.), Small intestine (Min mouse; Min mouse, 100 mpk) | Polyp Number (Mean + S.D.), Colon (Min mouse; Min mouse, 300 mpk) | Polyp Number (Mean + S.D.), Small intestine (Min mouse; Min mouse, 300 mpk) | Polyp Number (Mean + S.D.), Total (Min mouse; Min mouse, 300 mpk) | % Inhibition vs. VH (Min mouse; Min mouse, 300 mpk, total polyp number vs. vehicle) [%] | Bioavailability [4] [%]
1 | CN1CC(=O)N2C(Cc3ccc(O)cc3)C(=O)N(Cc3cccc4ccccc34)CC2N1C(=O)NCc1ccccc1 (stereo not drawn) [COMPOUND 3] | 1.207 | 0.731 | 7.355 | 0.936 | 1.386 | 1.243 | Several metabolites (e.g., M1, M2, M3) were observed | about 24% | Several metabolites (e.g., M1, M2, M3) were observed |  |  |  |  |  |  |  |  | 
2 | CN1CC(=O)N2C(Cc3ccc(O)cc3)C(=O)N(Cc3ccc(F)cc3F)CC2N1C(=O)NCc1ccccc1 (stereo not drawn) [COMPOUND 5] |  |  |  |  |  |  |  |  |  | reduce the number of polyp | 71.4 ± 23.0 | 1.7 ± 1.5 | 69.2 ± 20.8 | 1.1 ± 1.2 | 46.1 ± 17.1 | 47.0 ± 16.9 | 31 | ~0
